Experimental data as given in patent US7902138B2, “Liquid detergent composition” (The Sun Products Corporation, priority 2003, dated 2011).

System: Protease enzyme
Assay: Residual protease activity in liquid detergent formulation after storage at 37° C. (tetrapeptide substrate assay)
Type: biochemical
Details: activity determined at 40° C., TRIS pH 9, relative to t=0; for Residual activity after 2 weeks, 0.05% BHT / Residual activity after 4 weeks, 0.05% BHT: 'base' liquid detergent formulation + 0.06% by weight perfume component + 0.05% by weight BHT; for Residual activity after 2 weeks, 0.05% BHT / Residual activity after 2 weeks, No BHT: 2 weeks storage at 37° C.; for Residual activity after 4 weeks, 0.05% BHT / Residual activity after 4 weeks, No BHT: 4 weeks storage at 37° C.; for Residual activity after 2 weeks, No BHT / Residual activity after 4 weeks, No BHT: 'base' liquid detergent formulation + 0.06% by weight perfume component
Procedure: To various samples of this ‘base’ liquid formulation 0.06% by weight based on said formulation of several types of perfume component—as indicated in the tables below—were added such that, as a result, each sample contains a different type of perfume component. To other samples of this ‘base’ formulation not only 0.06% by weight of said perfume components but also 0.05% by weight BHT (2,6-di-tert-butyl hydroxy toluene) were added.
The residual activity of the protease enzyme in all thus-formed formulations after 2 weeks and 4 weeks storage at 37° C., was determined at 40° C. in a TRIS pH 9 buffer and using tetrapeptide as substrate. For this determination, the following protocol was used:
Samples of 70 mg of the tested liquid formulation were diluted in 10.00 ml MilliQ water. 10 μl of this solution was added to an assay of 205 μl containing 74.4 mM TRIS pH9 and 0.494 mM tetrapeptide (succinyl-Ala-Ala-Pro-Phe-p-Nitroanilide). The absorbance of the tested samples at a wavelength of 450 nm was measured for 15 minutes at 40° C., using a spectrophotometer. The absolute changes in absorbance as compared to the absorbance measured on a freshly prepared calibration sample were correlated to the measured activity of such freshly prepared sample. The measured protease enzyme activity is expressed as GU/ml.
The residual enzyme activity (expressed as %) is the enzyme activity after storage of the liquid formulation concerned divided by the enzyme activity measured at t=0.
Tables 1 and 2 show the effect of the addition of 0.05% by weight of BHT on the residual enzyme activity in ‘base’ liquid detergent formulations additionally containing 0.06% by weight of the indicated perfume components, after 2 weeks storage at 37° C. respectively 4 weeks storage at 37° C.

Row | Compound | Residual activity after 2 weeks, 0.05% BHT | Residual activity after 4 weeks, 0.05% BHT | Residual activity after 2 weeks, No BHT | Residual activity after 4 weeks, No BHT
1 | CCC(=O)/C=C/C1C(C)=CCCC1(C)C (stereo not drawn) [Alpha methylionone] | 84% | 78% | 39% | 14%
2 | CC(C=O)Cc1ccc(C(C)(C)C)cc1 (centres unmarked) [Lilial] | 80% | 68% | 39% | 9%
3 | CC(C)=C1CC[C@@H](C)CC1=O [Pulegone] | 82% | 76% | 45% | 16%
4 | CC1=CCC(=C(C)C)CC1 [Terpinolene] | 85% | 79% | 51% | 17%
5 | CCCCCCCCCCC=CC=O [Tridecyclenaldehyde] | 70% | 54% | 14% | 4%
6 | CC1=CC(C)C(C=O)CC1 (centres unmarked) [Zestover] | 82% | 72% | 16% | 5%
7 | Octenal | 68% | 46% | 13% | 3%
8 | Terpinegene G | 72% | 62% | 48% | 23%
